Results taken from article PMC8208167 (Applied and Environmental Microbiology, 2021).

Assays:
[1] = target: biuret hydrolase (BiuH) (Herbaspirillum sp. BH-1, UniProt A0A2N6JFV5); experiment: ammonia release, Berthelot reaction; type: biochemical; settings: pH […], sodium phosphate; turnover
[2] = system: guanylurea hydrolase (GuuH); experiment: ammonia release, Berthelot reaction; type: biochemical, Ectopseudomonas mendocina; settings: read-out: Exptl determination; 125 mM sodium phosphate, pH 8.0 (optimum), room temperature

Sequence of biuret hydrolase (BiuH) (A0A2N6JFV5 1-231): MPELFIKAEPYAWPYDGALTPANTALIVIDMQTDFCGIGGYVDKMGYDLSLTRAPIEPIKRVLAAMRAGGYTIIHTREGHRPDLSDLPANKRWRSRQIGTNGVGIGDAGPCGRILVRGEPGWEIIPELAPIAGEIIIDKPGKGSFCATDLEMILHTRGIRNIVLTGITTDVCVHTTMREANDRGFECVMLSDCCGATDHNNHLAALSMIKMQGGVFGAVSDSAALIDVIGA

SMILES | activity [1] | Km [2]
NC(=O)NC(N)=O [biuret] | diminished activity with biuret compared to that of the wild type | –
N=C(N)NC(N)=O [guanylurea] | – | 16 µM
